We go through four compounds from patent US12539273B2, “External nano liniment for gout and preparation method thereof” (priority 2021, dated 2026).

Molecules are shown by their SMILES. Like-named read-outs stand apart in the source and are kept apart here.

For data set [1], the system named is patients with gout. The experiment in a line: Preliminary human trial of preparation: crystal dissolution of gout crystals. It is filed as in vivo. The method, then:
The prepared nano liniment was applied to some patients with gout on trial. The gout treatment effect was obvious. The local application dosage was far below the dosage of the same oral medicine. The total dosage was safe.
Method of application: the nano liniment was applied to the gout parts (most foot joints, some hand joints or other parts) twice a day (every morning and evening), 1 ml of the corresponding nano liniment was applied every time, the gout (crystal) parts were photographed at different points in time before and after the nano liniment was applied, and the blood uric acid concentration (i.e. the uric acid value under fasting) of some patients with obvious crystal dissolution and lump elimination was also determined as a reference.

The conditions of data set [2]: cited from earlier work; for cardiovascular and cerebrovascular and all-cause mortality: oral administration, statistic average period of 1 year.

Turning to `OCc1ccc(O[C@@H]2O[C@H](CO)[C@@H](O)[C@H](O)[C@H]2O)cc1` [4-hydroxymethyl phenyl-beta-D-glucopyranoside], the analgesic effect entry in data set [1] (finding of the study, gout) was “good analgesic effect”. Also, the gout treatment effect entry in data set [1] (patients with gout on trial) is listed as “good treatment effect on gout”. For `Oc1ncnc2[nH]ncc12` [Allopurinol], the “cardiovascular and cerebrovascular and all-cause mortality” value is on record as “mortality reaches up to 3.3%)” in data set [2] and 3.3% in data set [2] (listed as allopurinol). As to `Cc1nc(-c2ccc(OCC(C)C)c(C#N)c2)sc1C(=O)O` [Febuxostat], the figures for the “cardiovascular and cerebrovascular and all-cause mortality” value in data set [2] and in data set [2] (listed as febuxostat) were “reaches up to 4.1%)” and 4.1%, respectively. For the compound `N#Cc1cc(-c2n[nH]c(-c3ccncc3)n2)ccn1` [Topiroxostat], in data set [2] (oral tablet, marketed gout medicine), the Side effects result is “effect on the liver and bile”.
